1 molecule from patent US12479812B2, “Fatty acid derivatives and their use” (THE UNITED STATES OF AMERICA, as represented by the …, priority 2017, dated 2025) can be followed below.

One test has as its system human THP-1 cells. In words: ApoA1 cholesterol efflux screen in THP-1 cells. In kind it is cell-based. Particulars: 50 μM; THP-1 cells incubated with ApoA1. How it is done:
Human THP-1 cells were incubated with ApoA1 in the presence of linoleic acid or several different fatty acid derivatives (50 μM) in a blinded manner, and resulting cholesterol efflux was measured (FIG. 9) as previously described (PMID: 26879139).

Test [1] deals with murine trigeminal sensory neurons. In words: Ca2+ responses in cultured trigeminal sensory neurons. It counts as cell-based, mouse. Particulars: FIG. 7B. The method, then: Additionally, murine trigeminal sensory neurons were isolated and cultured in vitro. Fatty acid derivatives were applied to the cultured neurons and any resulting Ca^2+ response was measured in a blinded manner. The assayed compounds include: 11H-12,13E-LA (Compound 1), 11K-12,13E-LA (Compound 2), 11H-9,10E-LA (Compound 3), and 11K-9,10E-LA (Compound 4).

Test [2] concerns tumor necrosis factor (TNF)-alpha secretion, human PBMCs. Description: PBMC cytokine secretion (ELISA): TNF-alpha. It counts as cell-based. Conditions: 100 μM, 24 hours. How it is done: (§1) Freshly isolated human PBMCs were pre-incubated (FIGS. 11A and 11C) or not (FIGS. 11B and 11D) with LPS, and then incubated with ferulic acid (“FA,” 100 μM) and 11H-12,13E-LA, 11K-12,13E-LA, PBS, or LPS alone for 24 hours (blinded). Then, the medium concentration of TNF-alpha (FIGS. 11A and 11B) or […] (FIGS. 11C and 11D) was measured using enzyme-linked immunosorbent assay.
In general terms: An ELISA detects its analyte on a solid surface through an enzyme-linked reagent.

Test [3] has as its system adult rat dorsal root ganglia (DRG) neurons. Description: Ex vivo CGRP release assay in adult rat sensory neuronal cultures. It counts as cell-based. Conditions: 1 μM. How it is done:
For release experiments, the work was approved by the Animal Care and Use Committee at Indiana University School of Medicine, Indianapolis, IN. Adult rat sensory neuronal cultures were prepared as previously described (Burkey, Hingtgen, and Vasko, Methods in molecular medicine 99, 189, 2004; Kelley et al., PloS one 9, e106485, 2014). Cells were maintained for 10-12 days in F-12 media (Invitrogen, Carlsbad, CA) supplemented with 10% horse serum, 2 mM glutamine, 100 μg/ml normocin™, 50 μg/ml penicillin, 50 μg/ml streptomycin, 50 μM 5-fluoro-2′-deoxyuridine (Invitrogen), 150 μM uridine, and 30 ng/ml of NGF (Harlan Bioproducts for Science, Inc. Indianapolis, IN) in 3% CO2 at 37° C. On the day of the release experiments, cultures were washed with HEPES buffer (25 mM HEPES, 135 mM NaCl, 3.5 mM KCl, 2.5 mM CaCl2, 1 mM MgCl2, 3.3 mM D-glucose, and 0.1% bovine serum albumin, pH 7.4 and maintained at 37° C. Cultures were then incubated with 0.4 ml of the same buffer in the absence or presence of drugs. Basal release was determined by exposing the cells to HEPES buffer alone for 10 min, then to buffer in the presence of mediators for 10 min to ascertain if the compounds stimulated release. Cultures were then exposed to buffer containing 30 nM capsaicin or buffer with the pH adjusted to 6.0 in the absence or presence of mediators. Cells then were re-exposed to HEPES buffer without drugs for a 10 min incubation to reestablish basal release. After each incubation, the buffer was removed to measure the amount of CGRP using radioimmunoassay as previously described (Chen et al., Peptides 17, 31, 1996). At the end of each release experiment, cells were hypotonically lysed by exposing the cultures to 0.1 M HCl for 10 min and an aliquot taken to measure total CGRP content in the cultures using radioimmunoassay. […] Release data are presented in fmol/well of cell/10 min from three independent experiments from separate harvests. Statistical analysis was performed using ANOVA with Tukey's post hoc test.

The test system of test [4] is interleukin (IL)-1, human PBMCs. Description: PBMC cytokine secretion (ELISA): IL-1. Conditions: 100 μM; with or without LPS; 24 hours. In kind it is cell-based. The method, then:
as §1

In test [5] the test system is freshly isolated human PBMCs. In words: ApoA1 cholesterol efflux screen in freshly isolated PBMCs. In kind it is cell-based. Conditions: 50 μM.
The subject of the next test is male Sprague-Dawley rats. Description: Nociceptive (pain) behavior after intradermal hindpaw injection. Particulars: after intradermal hindpaw injection (11H-12,13E-LA 30 μg), versus vehicle. It counts as in vivo, rat. How it is done: 11-hydroxy-12,13-trans-epoxy-(9Z)-octadecenoate (30 μg) was injected intradermally into the hindpaw of male Sprague-Dawley rats. Baseline measurements were taken for all tests prior to injection. A-delta and C-fiber mediated hindpaw withdrawal responses were measured as previously described (Mitchell et al., Pain 155, 733, 2014). Briefly, by stimulation of the plantar surface of the paw with a 100 ms laser pulse, producing a rapid withdrawal response. Laser pulses were delivered by an infrared diode laser (LASS-10 M; Lasmed, Mountain View, CA, USA) and calibrated to 3500 mA at 0.5 mm diameter, and delivered from 1 cm distance, C-fiber mediated responses were measured by delivery of a slow temperature ramp to the plantar surface of the hindpaw, with stimulus termination by voluntary withdrawal of the paw. The laser stimulus was adjusted to result in an approximately 10 second withdrawal latency (1000 mA, 13 cm distance).

Take `CCCCCC1OC1C(O)/C=C\CCCCCCCC(=O)O` (stereo not drawn) [11H-12,13E-LA, 11-hydroxy(H)-12,13-trans-epoxy-(E)-octadecenoate]: the “ApoA1-mediated monocyte cholesterol efflux” value (in the test with human THP-1 cells; in test [5]) was “inhibited” throughout. In addition, the “number of trigeminal cells responding, concentration-response” value in test [1] is on record as “increase in the number of cells responding”. Further, in test [2] (LPS pre-incubation), the “LPS-induced TNF-alpha secretion” value is “inhibits”. In test [2] (no LPS), the “native TNF-alpha secretion” value is on record as “inhibits”. In test [3] (30 nM capsaicin), the “capsaicin-evoked CGRP release” value was “significantly augmented”. Also, the “low-pH-evoked CGRP release” value in test [3] (buffer pH adjusted to 6.0) is “significantly augmented”. Moreover, the IL-1 secretion result in test [4] is “has no effect”. The “decrease of C-fiber withdrawal latencies” value in the test on male Sprague-Dawley rats is given as 28%.
